The values that follow come from the METLIN SMRT retention time set (Domingo-Almenara et al. 2019).

Each structure is given as a SMILES string.

The nature of the series: gradient 5% acetonitrile 3 min, to 50% in 2 min, to 85% in 15 min, held 3 min, 100 µL/min. The following applies: column: Zorbax Extend-C18 2.1 x 50 mm; eluents: water / acetonitrile, 0.1% formic acid. The essentials: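 Over 3 months, pure standards in mixtures of ~100 molecules were run by HPLC coupled to a quadrupole time-of-flight mass spectrometer in positive and negative ionization mode. The column was a Zorbax Extend-C18 (2.1 × 50 mm, 1.8 μm) at 100 μL/min, eluted with water and acetonitrile each holding 0.1% formic acid, with 40 μL dead and 900 μL dwell volumes. Retention time was determined from adduct peaks chosen by software and checked manually.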
As for `COC(=O)CNC(=O)NCC(=O)N1CCc2ccccc21`, the RP-LC retention time was found to be 647 s.

With `CCOC(=O)Cc1nnc(-c2cc(OC)cc(OC)c2)o1`, the RP-LC retention time stood at 836 s.

`CSc1cccc(NC(=O)Cn2cccc(-c3nc(-c4ccc(Br)cc4)no3)c2=O)c1` showed an RP-LC retention time of 1050 s.

In turn, `Cc1sc2cc(C(=O)NC3CCCCC3)[nH]c2c1CN1CCOCC1` had an RP-LC retention time of 671 s.

Regarding `COc1cccc(S(=O)(=O)N2CCC3(CC2)NCCCN=C3NC2CCCCC2)c1`, the RP-LC retention time was determined as 759 s.

Compound `Cc1cccc(-c2nc3nc(C)cc(N4CCN(c5ccccn5)CC4)n3n2)c1` had an RP-LC retention time of 638 s.

Compound `CCOC(=O)C1=C(C)NC2=C(C(=O)C(C(=O)OC)C(C)C2)C1c1cccc(OC)c1` (centres undefined) returned an RP-LC retention time of 846 s.

`Cc1sc(-c2noc(C3CC3)n2)cc1S(=O)(=O)N1CCC(C(=O)NC2CCCCCC2)CC1`: the RP-LC retention time came out at 1080 s.

In turn, `Cc1ccn2c(NC(=O)c3cc(Br)ccc3Cl)c(-c3ccccc3)nc2c1` showed an RP-LC retention time of 735 s.

With `CCn1cc(C(=O)NCCc2ccc(Cl)cc2)c(S(=O)(=O)N2CCSCC2)n1`, the RP-LC retention time was determined as 935 s.

For `CSc1ccc(CCNC(=O)c2nnc(-c3ccc(S(=O)(=O)N4CCCCC4)cc3)o2)cc1`, the RP-LC retention time worked out at 1090 s.

`Cc1cc(C2CCCN2C(=O)Cc2ccccc2Cl)no1` (centres undefined) returned an RP-LC retention time of 804 s.

`CC(C)CC(=O)Nc1ccc2c(c1)N(C(=O)c1ccco1)CCC2` gave an RP-LC retention time of 802 s.

In turn, `COc1ccccc1N1CCN(c2cc(SCC(=O)NCCCc3ccccc3)ncn2)CC1` came in with an RP-LC retention time of 959 s.

Regarding `COc1cccc(-n2cc(C(=O)O)c3c2C(c2ccc(OC)c(OC)c2)CC(=O)N3)c1` (centres undefined), the RP-LC retention time amounted to 717 s.

In the case of `CC(=O)Nc1ccc(C(=O)NC2CCN(c3cc(-c4ccccc4)[nH]n3)C2)cc1` (centres undefined), the RP-LC retention time came to 626 s.

In the case of `COc1ccccc1CCC(=O)NC1(c2nc(-c3cccnc3)no2)CCCCC1`, the RP-LC retention time amounted to 956 s.

In turn, `Cn1c(=O)n(C)c2cc(S(=O)(=O)c3ccccc3)c(NC(=O)c3ccccc3F)cc21` displayed an RP-LC retention time of 878 s.

`CCCn1ccc2sc(C)c(C(=O)NCCC3=CCCCC3)c2c1=O`: the RP-LC retention time worked out at 1000 s.

For the compound `O=C(c1nc2ccccc2s1)N1CCC(COCc2ccccc2)CC1`, the RP-LC retention time came to 1150 s.

`Cc1cccc(CNC(=O)C2CCc3nc(N4CCOCC4)ncc3C2)c1` (centres undefined) displayed an RP-LC retention time of 723 s.

For the compound `CN(CCc1noc(-c2ccccc2)n1)C(=O)Nc1ccc(F)cc1F`, the RP-LC retention time amounted to 858 s.

Take `CCOc1ccc(NC(=O)N2CCC(n3cnnc3C3CC3)C2)cc1` (centres undefined): the RP-LC retention time is 630 s.

Compound `Cc1nc2ccccn2c(=O)c1Cc1nnc(SCC(=O)NCc2nc3ccccc3[nH]2)n1C` showed an RP-LC retention time of 544 s.

With `CC(C)NC(=O)c1ccc2c(c1)CCN2C(=O)C1CCC1`, the RP-LC retention time was 764 s.

`O=C(CCNc1cnc2cnccn12)NCc1ccc2c(c1)OCO2` showed an RP-LC retention time of 564 s.

In the case of `COc1ccc(NC(=O)N2CCN(C3=CC4=NC(C)CN4C=N3)CC2)cc1Cl` (centres undefined), the RP-LC retention time turned out to be 633 s.

For `Cc1nn(-c2ccccc2)c2c1N(CCCC(=O)NCc1ccc(N(C)C)cc1)C(=O)CS2`, the RP-LC retention time came to 628 s.

Compound `O=C(Nc1ccccc1)OC1CCCC(NC(=O)C2(c3ccccc3)CCOCC2)C1` (centres undefined) displayed an RP-LC retention time of 857 s.

`O=C(Cn1c2ccccc2c2ncn(Cc3nc(C4CC4)no3)c(=O)c21)NCCC1=CCCCC1` gave an RP-LC retention time of 940 s.

In turn, `COc1cccc(C(=O)NC2(C(F)(F)F)C(=O)N(C3CCCCC3)C(C)=C2C(C)=O)c1` (centres undefined) displayed an RP-LC retention time of 987 s.

In the case of `Clc1cccc2sc(NCC3CCCO3)nc12` (centres undefined), the RP-LC retention time was found to be 811 s.

The compound `Cc1ccc(N2CC(c3nc(-c4ccc5c(c4)ncn5CCC(=O)N4CCCC4)no3)CC2=O)cc1C` (centres undefined) had an RP-LC retention time of 738 s.

On to `CCOC(=O)C1CCN(c2cc3c(cc2NC(=O)NC2CCCC2)n(C)c(=O)n3C)CC1`, for which the RP-LC retention time is 777 s.

The compound `Cn1c(=O)n(C)c2cc(Oc3ccccc3)c(NS(=O)(=O)c3ccc(F)cc3)cc21` yielded an RP-LC retention time of 868 s.

As for `Cc1cc(Cl)ccc1NC(=O)NCC1CCOCC1`, the RP-LC retention time stood at 788 s.

`N#Cc1ccc(S(=O)(=O)NC2CCc3nn(CC4CC4)c(=O)n3CC2)cc1` (centres undefined): the RP-LC retention time was determined as 616 s.

`CC1CCN(c2nc(C(=O)N3CCN(C(C)C)CC3)nc3c2cnn3C)CC1` gave an RP-LC retention time of 604 s.

`COc1ccccc1OCC1c2ccsc2CCN1C(=O)CN(C(C)=O)C(C)C` (centres undefined) yielded an RP-LC retention time of 773 s.

`CC(C)(C)c1cc(C(=O)NCc2cccs2)nc2ccnn12`: the RP-LC retention time is 1110 s.

Compound `Cc1sc2ccn(C)c(=O)c2c1C(=O)NCc1cccc(Cl)c1` displayed an RP-LC retention time of 817 s.

In turn, `Cc1ccc2nc(-c3ccc(Cl)cc3)c(Nc3ccc(Cl)cc3)n2c1` yielded an RP-LC retention time of 831 s.

`CCOC(=O)c1c(CN2CCOCC2)n(C)c2cc(Br)c(OC)cc12` came in with an RP-LC retention time of 698 s.

As to `O=C(Nc1ccc(F)cc1)C1CCCN(S(=O)(=O)c2cc(-c3noc(C4CCC4)n3)cs2)C1` (centres undefined), the RP-LC retention time is 1160 s.

`CCN(CC)S(=O)(=O)c1cccc(-c2nnc(-c3ccccc3OC)o2)c1`: the RP-LC retention time turned out to be 950 s.

In the case of `O=C(O)CCC(=O)Nc1cccc(C(F)(F)F)c1`, the RP-LC retention time was 674 s.

As to `COc1ccc(C2C(=O)N(C3CCCCC3)CC(=O)N2Cc2cccs2)cc1` (centres undefined), the RP-LC retention time amounted to 952 s.

Consider `O=C(C1CCN(c2cnn(Cc3ccccc3)c(=O)c2)CC1)N1CCc2ccccc2C1`, for which the RP-LC retention time amounted to 829 s.

Turning to `O=C(CN1CCN(C(=O)Nc2ccccc2)CC1=O)NC1CCCCCC1`, the RP-LC retention time came out at 721 s.

As for `COC(=O)c1ccc2c(=O)n(Cc3ccc(F)cc3)c(N3CCN(C)CC3)nc2c1`, the RP-LC retention time amounted to 668 s.

In turn, `CCN(CC)C(=O)c1cc2c(s1)CCC(C(=O)N1CCC(C)CC1)C2` (centres undefined) displayed an RP-LC retention time of 806 s.

Compound `Cc1nc2scc(C)n2c(=O)c1S(=O)(=O)N1CCN(c2ccccn2)CC1` returned an RP-LC retention time of 584 s.

Regarding `Cn1cnnc1SCCNC(=O)Cc1noc2ccccc12`, the RP-LC retention time was found to be 591 s.

For the compound `CCCNC(=O)c1ccc2c(c1)CCCN2S(C)(=O)=O`, the RP-LC retention time was determined as 713 s.

Compound `CC(C)N1CCn2cc(S(=O)(=O)Nc3ccc(F)c(F)c3)cc2C1=O` displayed an RP-LC retention time of 794 s.

Compound `O=C(CCCn1c(=O)c2cccn2c2ccccc21)NCCCN1CCC(N2CCCCC2)CC1` displayed an RP-LC retention time of 584 s.

Consider `Cc1ccc(C)c(N2CCN(c3ncc(S(=O)(=O)c4ccccc4)c(N)n3)CC2)c1`, for which the RP-LC retention time came out at 1230 s.

`Cc1cc(C)cc(C(=O)N2CCCC(C(=O)Nc3ccc(Br)c(C)c3)C2)c1` (centres undefined) displayed an RP-LC retention time of 1110 s.

Consider `O=C(CCc1c(-c2ccc(F)cc2)nc2ccccn12)NC1CC1`, for which the RP-LC retention time is 587 s.

The compound `CC(=O)Nc1cccc(NC(=O)C2CC(=O)N(c3n[nH]c4ccccc34)C2)c1` (centres undefined) had an RP-LC retention time of 625 s.

For `COC(=O)c1ccc(N2Cc3cc(Cl)ccc3OCC2=O)cc1`, the RP-LC retention time was 877 s.

Consider `Cc1ccc(Cn2c(N3CCCC(C(=O)Nc4ccc(F)cc4)C3)nc3ccsc3c2=O)cc1` (centres undefined), for which the RP-LC retention time was found to be 1060 s.

With `Cc1ccc(Cn2c(C(=O)NCc3ccccc3)cc3sccc32)cc1`, the RP-LC retention time amounted to 864 s.

`CCOC(=O)c1c(C)[nH]c(C(=O)N2CCCC(C(=O)NCc3cccc(F)c3)C2)c1C` (centres undefined) displayed an RP-LC retention time of 808 s.

On to `O=C(NCc1cscn1)C1CCN(S(=O)(=O)c2cccc3nsnc23)CC1`, for which the RP-LC retention time was 659 s.

`O=C(NCc1ccco1)c1ccc(OCc2nc(C3CC3)cs2)cc1`: the RP-LC retention time was found to be 825 s.

As for `COc1ccccc1CNC(=O)Cn1c(=O)cc(-c2nc(C)no2)c2ccccc21`, the RP-LC retention time stood at 836 s.

With `Cn1cnc2cc(-c3noc(C4CC(=O)N(c5cccc(Cl)c5)C4)n3)ccc21` (centres undefined), the RP-LC retention time stood at 697 s.

On to `CN(C)CCCNc1oc(-c2ccccc2)nc1S(=O)(=O)c1ccc(F)cc1`, for which the RP-LC retention time is 692 s.

`O=C(COc1ccccc1)N1CCC(CNS(=O)(=O)c2cccnc2)CC1` came in with an RP-LC retention time of 658 s.

In turn, `CCOc1cc(=O)n2c(c1C(=O)NC1CC1)CCCCC2` returned an RP-LC retention time of 611 s.

`O=C(NCc1ccc2c(c1)OCO2)C1CCCN(C(=O)C2Sc3ccccc3NC2=O)C1` (centres undefined) showed an RP-LC retention time of 703 s.

The compound `Cc1oc(C2CCN(C(=O)C3CCCN(S(=O)(=O)N4CCCC4)C3)CC2)nc1C(=O)N1CCCC1` (centres undefined) registered an RP-LC retention time of 737 s.

Consider `COc1ccc(C)cc1NC(=O)NCCn1c(C(F)(F)F)nc2cccnc21`, for which the RP-LC retention time amounted to 807 s.

Take `O=C(NCCc1c[nH]c2ccccc12)C1CCN(c2nc3ccccc3[nH]2)CC1`: the RP-LC retention time amounted to 615 s.

Compound `O=S(=O)(c1ccc(F)c(F)c1)N1CCc2nc(-c3ccc(F)cc3)ncc2C1` yielded an RP-LC retention time of 1110 s.

For `CC1CCN(C(=O)c2cc3c(s2)CCC(C(=O)NCc2ccccn2)C3)CC1` (centres undefined), the RP-LC retention time was determined as 668 s.

In the case of `CN(CCc1noc(COc2ccccc2F)n1)C(=O)c1ccccc1F`, the RP-LC retention time was 889 s.

`Cc1cccc(-n2c(=O)c3c(cc(C)n3C)n(CC(=O)Nc3ccc(C)c(F)c3)c2=O)c1` yielded an RP-LC retention time of 866 s.
